Results published in article PMC4669708 (Cell Death & Disease, 2015).

Experiments:
Experiment in all cases: c-ponatinib pulldown LC-MS/MS
Format in all cases: binding
IRAK4 = target: T1, IRAK4 (Homo sapiens, UniProt Q9NWZ3)
T1 sequence (Q9NWZ3 1-460): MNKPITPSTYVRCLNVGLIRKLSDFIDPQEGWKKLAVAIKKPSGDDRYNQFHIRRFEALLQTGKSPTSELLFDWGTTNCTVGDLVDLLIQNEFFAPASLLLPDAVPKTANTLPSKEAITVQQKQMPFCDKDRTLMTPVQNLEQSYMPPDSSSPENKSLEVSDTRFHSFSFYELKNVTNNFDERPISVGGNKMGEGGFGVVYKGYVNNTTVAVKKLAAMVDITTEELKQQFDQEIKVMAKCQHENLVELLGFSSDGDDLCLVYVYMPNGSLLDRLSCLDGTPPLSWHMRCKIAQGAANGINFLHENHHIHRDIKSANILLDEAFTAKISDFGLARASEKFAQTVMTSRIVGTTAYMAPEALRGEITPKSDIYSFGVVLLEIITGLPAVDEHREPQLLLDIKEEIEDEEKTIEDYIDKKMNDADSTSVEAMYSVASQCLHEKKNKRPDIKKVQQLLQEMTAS
Summary of the method: (§1)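 Whole cell lysate (10 mg) was first passed over immobilized c-ponatinib, and bound proteins were eluted. After reduction, alkylation and tryptic digestion, the peptides were analysed by LC-MS/MS. Finally, binding specificity was assigned by a combined P-value, with or without free-compound competition.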

MAP4K2 = target: T2, MAP4K2 (Homo sapiens, UniProt Q12851)
T2 sequence (Q12851 1-820): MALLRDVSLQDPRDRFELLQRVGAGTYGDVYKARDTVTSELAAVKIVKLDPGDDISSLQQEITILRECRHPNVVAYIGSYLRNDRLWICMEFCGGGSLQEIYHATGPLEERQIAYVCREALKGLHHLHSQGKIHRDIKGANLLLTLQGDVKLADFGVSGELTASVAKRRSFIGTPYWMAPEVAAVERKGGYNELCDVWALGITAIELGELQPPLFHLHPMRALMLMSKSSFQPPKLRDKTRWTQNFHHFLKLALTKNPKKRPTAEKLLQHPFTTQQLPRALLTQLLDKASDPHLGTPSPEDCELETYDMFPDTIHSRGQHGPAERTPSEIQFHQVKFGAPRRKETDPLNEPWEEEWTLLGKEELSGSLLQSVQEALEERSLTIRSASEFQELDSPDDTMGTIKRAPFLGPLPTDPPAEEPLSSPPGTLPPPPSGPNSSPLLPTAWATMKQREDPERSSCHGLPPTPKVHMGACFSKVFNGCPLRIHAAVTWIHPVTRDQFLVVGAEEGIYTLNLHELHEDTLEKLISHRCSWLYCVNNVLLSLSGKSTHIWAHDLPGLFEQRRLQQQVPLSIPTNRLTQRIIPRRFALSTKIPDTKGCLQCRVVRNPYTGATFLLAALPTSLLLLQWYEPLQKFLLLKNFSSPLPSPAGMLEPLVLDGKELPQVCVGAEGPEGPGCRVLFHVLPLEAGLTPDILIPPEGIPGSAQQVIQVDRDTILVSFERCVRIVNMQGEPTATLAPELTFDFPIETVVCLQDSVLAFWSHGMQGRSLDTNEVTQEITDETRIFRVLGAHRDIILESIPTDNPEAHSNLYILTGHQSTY
Summary of the method: as §1

YWHAZ = target: T3, YWHAZ (Homo sapiens, UniProt P63104)
T3 sequence (P63104 1-245): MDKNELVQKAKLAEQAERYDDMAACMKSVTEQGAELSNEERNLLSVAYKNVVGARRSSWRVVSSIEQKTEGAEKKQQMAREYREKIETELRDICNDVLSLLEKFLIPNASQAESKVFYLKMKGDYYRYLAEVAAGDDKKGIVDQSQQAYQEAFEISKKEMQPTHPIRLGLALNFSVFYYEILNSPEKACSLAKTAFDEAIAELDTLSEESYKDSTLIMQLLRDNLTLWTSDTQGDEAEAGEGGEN
Summary of the method: as §1

## Cc1ccc(C(=O)Nc2ccc(CN3CCN(CCCN)CC3)c(C(F)(F)F)c2)cc1C#Cc1cnc2cccnn12 [c-ponatinib]
IRAK4; + free ponatinib
  Av. SC comp.: 2.5
  Total SC comp.: 10
IRAK4; no competitor
  Av. SC: 8.5
  Total SC: 34
MAP4K2; + free ponatinib
  Av. SC comp.: 0
  Total SC comp.: 0
MAP4K2; no competitor
  Av. SC: 2.5
  Total SC: 10
YWHAZ; + free ponatinib
  Av. SC comp.: 2.5
  Total SC comp.: 10
YWHAZ; no competitor
  Av. SC: 10.5
  Total SC: 42
